Assay results from ChEMBL document CHEMBL1201862, “PubChem BioAssay data set” (2004).
Activity calls are given as the source filed them.

Legend:
[1] = target: Alkaline phosphatase, placental type (Homo sapiens, UniProt P05187); test: human placental alkaline phosphatase inhibition – biochemical, luminescence, confirmation (AID 1512); assay type: functional
[2] = target: Glyceraldehyde-3-phosphate dehydrogenase (Homo sapiens, UniProt P04406)
[3] = target: T1, Alkaline phosphatase, tissue-nonspecific isozyme (Homo sapiens, UniProt P05186); test: potency against alkaline phosphatase TNAP – biochemical, luminescent, dose response, SAR follow-up (AID 1056)
T1 sequence (P05186 whole entry): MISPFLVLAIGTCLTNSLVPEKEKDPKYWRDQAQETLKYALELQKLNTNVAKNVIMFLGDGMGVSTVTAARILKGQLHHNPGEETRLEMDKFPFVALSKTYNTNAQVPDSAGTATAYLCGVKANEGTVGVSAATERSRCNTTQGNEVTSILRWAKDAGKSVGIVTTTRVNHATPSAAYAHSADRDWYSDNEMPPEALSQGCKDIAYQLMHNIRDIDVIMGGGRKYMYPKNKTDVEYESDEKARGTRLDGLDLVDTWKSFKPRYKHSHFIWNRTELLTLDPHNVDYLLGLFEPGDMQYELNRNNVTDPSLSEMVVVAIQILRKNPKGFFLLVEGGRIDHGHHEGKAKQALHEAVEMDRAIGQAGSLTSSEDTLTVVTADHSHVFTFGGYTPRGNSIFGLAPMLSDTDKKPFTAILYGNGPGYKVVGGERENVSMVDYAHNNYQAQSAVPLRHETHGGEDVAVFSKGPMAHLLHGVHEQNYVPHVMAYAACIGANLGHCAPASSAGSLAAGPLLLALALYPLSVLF

[4] = target: T2, Neuropeptides B/W receptor type 1 (Homo sapiens, UniProt P48145); test: Fluorescence-based dose response cell-based high throughput screening assay to identify antagonists of the G-protein coupled receptor 7 (GPR7). [Related pubchem assays: 1952 (Screening assay (GPR7 antagonists).), 1880 (Summary AID.)]; assay type: functional
T2 sequence (P48145 whole entry): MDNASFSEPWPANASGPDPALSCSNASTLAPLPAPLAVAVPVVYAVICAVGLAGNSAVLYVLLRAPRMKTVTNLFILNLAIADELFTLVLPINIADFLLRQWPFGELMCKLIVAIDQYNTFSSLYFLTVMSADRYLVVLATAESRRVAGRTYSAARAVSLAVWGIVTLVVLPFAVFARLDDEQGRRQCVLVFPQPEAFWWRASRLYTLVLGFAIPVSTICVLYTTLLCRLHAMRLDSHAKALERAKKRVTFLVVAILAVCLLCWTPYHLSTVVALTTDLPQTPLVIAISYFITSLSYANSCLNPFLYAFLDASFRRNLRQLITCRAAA

[5] = target: Melanin-concentrating hormone receptor 1 (Homo sapiens, UniProt Q99705); test: Fluorescence-based counterscreen for antagonists of the G-protein coupled receptor 7 (GPR7): cell-based high throughput dose response assay to identify antagonists of the melanin-concentrating hormone receptor 1 (MCHR1).; assay type: functional
Sequence of Melanin-concentrating hormone receptor 1 (Q99705 whole entry): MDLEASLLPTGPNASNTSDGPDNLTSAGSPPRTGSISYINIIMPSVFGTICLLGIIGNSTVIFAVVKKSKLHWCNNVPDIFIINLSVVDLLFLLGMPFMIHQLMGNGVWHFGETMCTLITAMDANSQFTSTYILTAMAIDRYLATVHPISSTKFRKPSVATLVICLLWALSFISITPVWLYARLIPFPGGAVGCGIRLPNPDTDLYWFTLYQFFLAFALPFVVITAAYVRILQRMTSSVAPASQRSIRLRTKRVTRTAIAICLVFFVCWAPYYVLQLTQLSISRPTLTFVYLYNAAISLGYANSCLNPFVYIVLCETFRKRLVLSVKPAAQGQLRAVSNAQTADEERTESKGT

[6] = target: G-protein coupled receptor 55 (Homo sapiens, UniProt Q9Y2T6); test: selective activators of receptor GPR55 – imaging, U2OS cells, beta-arrestin-GFP redistribution, primary screen (AID 1961); assay type: functional
Sequence of G-protein coupled receptor 55 (Q9Y2T6 whole entry): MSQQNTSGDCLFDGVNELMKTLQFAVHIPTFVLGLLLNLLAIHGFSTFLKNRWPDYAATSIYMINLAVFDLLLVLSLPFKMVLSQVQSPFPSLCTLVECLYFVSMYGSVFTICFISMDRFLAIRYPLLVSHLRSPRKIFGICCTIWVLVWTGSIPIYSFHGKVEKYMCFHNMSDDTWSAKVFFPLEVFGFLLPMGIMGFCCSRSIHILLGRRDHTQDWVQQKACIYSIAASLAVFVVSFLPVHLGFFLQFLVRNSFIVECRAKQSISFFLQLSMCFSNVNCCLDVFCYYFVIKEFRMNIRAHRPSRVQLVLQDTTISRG

[7] = Trypanosoma cruzi growth suppression in host cells – NIH3T3 host cells, beta-gal luminescence, confirmation (AID 2044); assay type: functional, cell-based;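 note: intracellular parasites grown in NIH/3T3 mouse fibroblasts as host cells; luminescent beta-galactosidase reporter signal from transgenic T. cruzi replicating inside host cells; inhibitors lower the luminescence signal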
[8] = tested on: INS1; test: INS-1E survival protection against cytokine death – cell-based, luminescence, retest, dose response (AID 449756); assay type: functional; settings: Rattus norvegicus;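 note: cell death triggered by IL-1 beta plus TNF-alpha plus IFN-gamma mixture; protective hits raise ATP signal compared with cytokine alone wells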
[9] = tested on: Streptococcus sp. 'group A'; test: Streptococcus pyogenes SK(-)GAS viability under kanamycin – luminescence, BacTiterGlo, confirmation, counter-screen for streptokinase expression inhibitor project, dose response (AID 1900); assay type: functional, organism-based
[10] = NIH3T3 cell viability loss – ATP luminescence, mouse fibroblasts, counter-screen, dose response (AID 2010); assay type: functional, cell-based;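 note: cells exposed to compound for about 90 hours before reading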
[11] = tested on: Streptococcus; test: GAS UMAA2166 growth inhibition – luminescence, BacTiterGlo, counter-screen for streptokinase expression inhibitor project, dose response (AID 1915); assay type: functional, organism-based;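 note: potency for reduction of bacterial viability or growth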
[12] = Intein inhibitors as potential Tuberculosis drugs, a cytotoxicity screen. [Related pubchem assays (depositor defined):AID2221, AID2223, AID434968, AID435010, AID449749, AID449750, AID489010]; assay type: functional
[13] = tested on: BJ; test: cells; assay type: functional, cell-based; settings: Homo sapiens
[14] = DRD fibroblast viability loss – cell-based, non-viral oncogenic, luminescence, dose response (AID 1934); assay type: functional; settings: Homo sapiens
[15] = tested on: BJ; test: BJ-TERT fibroblast viability loss – cell-based, RAS-independent, luminescence, dose response (AID 1933); assay type: functional; settings: Homo sapiens
[16] = tested on: BJ; test: BJ-TERT-LT-ST fibroblast viability loss – cell-based, RAS-independent, luminescence, dose response (AID 1935); assay type: functional; settings: Homo sapiens;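 note: BJ fibroblasts immortalized with TERT plus LT and ST oncogenes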
[17] = HEK-293T viability loss after treatment – luminescence, T-cell screen hits, cytotoxicity control for TCR NF-kB inhibitor project, dose response (AID 489026); assay type: functional, cell-based;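 note: cells exposed to compound about 14 hours before the viability readout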
[18] = target: T3, Protein skinhead-1 (Caenorhabditis elegans, UniProt P34707); assay type: functional
T3 sequence (P34707 whole entry): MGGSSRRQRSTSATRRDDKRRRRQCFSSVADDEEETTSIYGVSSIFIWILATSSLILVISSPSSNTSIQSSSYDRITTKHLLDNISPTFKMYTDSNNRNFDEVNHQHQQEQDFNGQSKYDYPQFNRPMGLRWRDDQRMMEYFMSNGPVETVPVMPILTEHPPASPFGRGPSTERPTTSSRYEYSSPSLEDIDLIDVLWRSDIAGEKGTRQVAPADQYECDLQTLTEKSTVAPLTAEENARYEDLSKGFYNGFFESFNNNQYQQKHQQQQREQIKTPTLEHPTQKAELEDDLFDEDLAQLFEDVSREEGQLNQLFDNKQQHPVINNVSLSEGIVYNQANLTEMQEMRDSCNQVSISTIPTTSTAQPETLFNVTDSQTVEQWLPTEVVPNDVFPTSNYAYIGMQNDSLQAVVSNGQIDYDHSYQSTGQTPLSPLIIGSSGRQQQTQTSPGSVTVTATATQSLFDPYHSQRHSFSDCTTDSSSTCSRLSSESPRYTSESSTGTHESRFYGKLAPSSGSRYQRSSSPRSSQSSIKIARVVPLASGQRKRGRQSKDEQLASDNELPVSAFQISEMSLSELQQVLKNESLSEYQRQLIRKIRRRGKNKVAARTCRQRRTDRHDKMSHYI

[19] = target: T4, Protein RecA (Mycobacterium tuberculosis, UniProt P9WHJ3); test: Fluorescence Cell-Free Homogeneous Dose Retest to Identify Inhibitors of RecA-Intein Splicing Activity. [Related pubchem assays (depositor defined):AID2097, AID2223, AID489010, AID492950]; assay type: functional
T4 sequence (P9WHJ3 whole entry): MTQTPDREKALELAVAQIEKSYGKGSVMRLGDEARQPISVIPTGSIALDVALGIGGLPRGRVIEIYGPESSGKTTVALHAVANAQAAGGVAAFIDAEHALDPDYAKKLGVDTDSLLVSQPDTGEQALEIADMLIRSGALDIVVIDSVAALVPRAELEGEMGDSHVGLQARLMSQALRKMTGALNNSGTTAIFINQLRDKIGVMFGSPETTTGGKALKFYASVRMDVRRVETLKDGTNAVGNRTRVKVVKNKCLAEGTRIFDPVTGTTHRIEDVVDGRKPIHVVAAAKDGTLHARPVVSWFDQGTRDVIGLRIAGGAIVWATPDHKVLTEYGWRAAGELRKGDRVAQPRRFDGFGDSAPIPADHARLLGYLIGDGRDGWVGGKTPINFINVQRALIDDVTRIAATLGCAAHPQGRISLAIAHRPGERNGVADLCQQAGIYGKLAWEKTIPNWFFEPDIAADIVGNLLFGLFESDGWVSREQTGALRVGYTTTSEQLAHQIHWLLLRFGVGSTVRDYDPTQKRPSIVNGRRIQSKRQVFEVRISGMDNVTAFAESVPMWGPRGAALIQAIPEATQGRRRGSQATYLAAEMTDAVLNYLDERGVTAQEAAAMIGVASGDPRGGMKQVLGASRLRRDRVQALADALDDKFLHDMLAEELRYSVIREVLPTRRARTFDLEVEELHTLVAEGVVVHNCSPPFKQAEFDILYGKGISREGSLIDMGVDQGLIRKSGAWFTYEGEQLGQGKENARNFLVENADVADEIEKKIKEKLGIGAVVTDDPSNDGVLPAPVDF

[20] = target: Heat shock protein HSP 90-alpha (Homo sapiens, UniProt P07900); assay type: functional, organism-based
[21] = target: T5, Replicative DNA helicase DnaB (Mycobacterium tuberculosis, UniProt P9WMR3); test: DnaB intein splicing inhibitors, dose response, biochemical, cell-free fluorescence (AID 449749); assay type: functional
T5 sequence (P9WMR3 whole entry): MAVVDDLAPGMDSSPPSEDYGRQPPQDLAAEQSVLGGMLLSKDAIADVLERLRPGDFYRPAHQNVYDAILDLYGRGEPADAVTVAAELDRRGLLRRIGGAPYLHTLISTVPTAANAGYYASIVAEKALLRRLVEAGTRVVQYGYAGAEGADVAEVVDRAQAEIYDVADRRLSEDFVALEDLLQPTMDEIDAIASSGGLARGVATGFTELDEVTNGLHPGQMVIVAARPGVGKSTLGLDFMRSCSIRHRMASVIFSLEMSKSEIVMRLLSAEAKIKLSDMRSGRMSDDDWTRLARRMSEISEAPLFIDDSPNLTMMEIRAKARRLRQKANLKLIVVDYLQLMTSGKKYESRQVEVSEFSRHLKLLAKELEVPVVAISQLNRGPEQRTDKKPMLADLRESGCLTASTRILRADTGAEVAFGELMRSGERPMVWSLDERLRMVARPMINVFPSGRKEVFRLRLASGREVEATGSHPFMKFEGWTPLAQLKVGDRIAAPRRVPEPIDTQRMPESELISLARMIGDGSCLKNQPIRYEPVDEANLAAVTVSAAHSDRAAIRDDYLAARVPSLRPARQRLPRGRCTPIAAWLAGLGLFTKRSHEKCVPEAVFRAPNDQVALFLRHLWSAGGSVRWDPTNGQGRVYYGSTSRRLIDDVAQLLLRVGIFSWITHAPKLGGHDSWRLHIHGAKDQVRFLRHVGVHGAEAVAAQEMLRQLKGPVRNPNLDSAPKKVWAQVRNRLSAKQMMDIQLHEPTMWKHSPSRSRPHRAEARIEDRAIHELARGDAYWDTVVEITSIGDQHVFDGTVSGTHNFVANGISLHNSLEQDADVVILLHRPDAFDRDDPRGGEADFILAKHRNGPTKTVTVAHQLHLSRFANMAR
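Throughout, for CC50: cells exposed to compound for 72 hours before luminescence readout.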

Sequence of Alkaline phosphatase, placental type (P05187 whole entry): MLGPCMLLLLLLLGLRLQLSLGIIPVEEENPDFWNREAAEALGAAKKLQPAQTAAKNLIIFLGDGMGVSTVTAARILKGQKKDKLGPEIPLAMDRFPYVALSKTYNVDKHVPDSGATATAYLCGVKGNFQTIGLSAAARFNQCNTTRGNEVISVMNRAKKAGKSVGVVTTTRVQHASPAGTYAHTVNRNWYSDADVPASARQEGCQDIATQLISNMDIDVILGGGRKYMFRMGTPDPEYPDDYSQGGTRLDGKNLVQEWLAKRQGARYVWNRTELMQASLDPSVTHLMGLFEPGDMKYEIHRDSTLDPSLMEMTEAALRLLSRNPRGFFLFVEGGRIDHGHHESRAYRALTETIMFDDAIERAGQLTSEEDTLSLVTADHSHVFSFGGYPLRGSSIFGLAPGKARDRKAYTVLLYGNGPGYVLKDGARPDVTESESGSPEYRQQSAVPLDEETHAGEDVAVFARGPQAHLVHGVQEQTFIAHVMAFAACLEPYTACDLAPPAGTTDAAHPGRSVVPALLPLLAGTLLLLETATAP
Sequence of Glyceraldehyde-3-phosphate dehydrogenase (P04406 whole entry): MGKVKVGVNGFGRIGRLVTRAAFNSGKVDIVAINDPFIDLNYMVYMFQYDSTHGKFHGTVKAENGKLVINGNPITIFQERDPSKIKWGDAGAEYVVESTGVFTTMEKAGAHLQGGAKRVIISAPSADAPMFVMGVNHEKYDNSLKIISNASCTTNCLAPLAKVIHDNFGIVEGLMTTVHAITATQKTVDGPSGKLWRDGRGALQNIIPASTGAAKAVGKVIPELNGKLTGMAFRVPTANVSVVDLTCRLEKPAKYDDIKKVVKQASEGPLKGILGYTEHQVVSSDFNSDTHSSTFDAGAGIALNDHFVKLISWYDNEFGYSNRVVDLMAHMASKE

Q: For `O=[N+]([O-])c1ccc(-c2n[nH]c(-c3ccccc3)n2)cc1`, which IC50 [1] is on record?
A: > 100 µM (inactive)

Q: What about the IC50 [2] of the same compound?
A: > 100 µM (not active)

Q: What about the IC50 [3] of the same compound?
A: > 100 µM (inactive)

Q: With `Cc1ccc(Cl)cc1N1CCN(C(=O)c2ccc3c(c2)CCN3S(C)(=O)=O)CC1` as the compound, how does the IC50 [4] read?
A: 23.5 µM (not active)

Q: What about the IC50 [5] of the same compound?
A: 16.9 µM (not active)

Q: And the EC50 [6]?
A: 21 µM (inactive)

Q: Which EC50 [7] does the source give for `O=C(NC(N=C(S)Nc1ccc(Cl)cc1Cl)C(Cl)(Cl)Cl)c1cccc([N+](=O)[O-])c1` (configuration not stated) here?
A: 1.14 µM (active)

Q: What about the AC50 [8] of the same compound?
A: 6.08 µM (active)

Q: What about the EC50 [9] of the same compound?
A: 1.37 µM (active)

Q: And the EC50 [10]?
A: 8.05 µM (active)

Q: And the EC50 [11]?
A: 4.8 µM (active)

Q: And the CC50 [12]?
A: 11 µM (active)

Q: With `O=C(c1ccc(Br)cc1)c1cc([N+](=O)[O-])ccc1N1CCOCC1` as the compound, how does the EC50 [13] read?
A: 14.8 µM (active)

Q: What about the EC50 [14] of the same compound?
A: 2.55 µM (active)

Q: And the EC50 [15]?
A: 7.48 µM (active)

Q: And the EC50 [16]?
A: 2.91 µM (inconclusive)

Q: What about the IC50 [17] of the same compound?
A: > 80 µM (inactive)

Q: And the IC50 [18]?
A: 44.7 µM (active)

Q: Which results are given for `CC1(C)N=C(SCC(=O)Nc2ccc(Cl)cc2)C(c2ccc(Cl)cc2)=N1`?
A: EC50 [19]: 4.7 µM (active); AC50 [20]: 11.3 µM (active); CC50 [12]: > 40 µM (active); AC50 [21]: 3.03 µM (active)
